# Experimental data taken from EP4772514A1, “MACROCYCLIC COMPOUNDS, PREPARATION METHOD THEREFOR, AND USE THEREOF” (Genfleet Therapeutics (Shanghai) Inc., priority 2023, dated 2025).
# Experiments:
# Assay type in all cases: cell-based
# p-ERK [1] = experiment: Cell p-ERK assay (HTRF, Advance ERK phospho-T202/Y204 kit) in NCI-H441 cells; details: Homo sapiens, NCI-H441, 3 h, NCI-H441, human non-small cell lung cancer cell strain, KRAS G12V mutation; 3 h compound incubation
# Method in brief: (§1)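 Cells with endogenous KRAS mutations, AsPC-1 (G12D) and NCI-H441 (G12V), were plated overnight and then exposed to compound for 3 h at 37 °C (final 0.1% DMSO, 10% FBS medium). ERK T202/Y204 phosphorylation in lysates was read by HTRF, and IC50 was derived from four-parameter curves of inhibition relative to DMSO and blank controls.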
# p-ERK [2] = experiment: Cell p-ERK assay (HTRF, Advance ERK phospho-T202/Y204 kit) in AsPC-1 cells; details: ASPC1; AsPC-1, human pancreatic cancer cell strain, KRAS G12D mutation; 3 h compound incubation
# Method in brief: as §1
# NCI-H441 cells = experiment: 3D cell proliferation assay (CellTiter Glo-3D) in NCI-H441 cells; details: Homo sapiens, NCI-H441, 120 h, NCI-H441, human lung cancer cell strain, KRAS G12V mutation; 3D culture, 2% FBS, 5 days; read-out: H441 AP IC50
# Method in brief: (§2)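 KRAS^G12V NCI-H441 and KRAS^G12D AsPC-1 cells (800 cells/well each) grown in RPMI-1640 with 2% FBS and treated the day after seeding with 3.16-fold compound dilutions (0.1% DMSO) for 5 days at 37 °C. Viability by CellTiter-Glo 3D luminescence; inhibition versus DMSO and cell-free controls, IC50 from four-parameter fit.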
# AsPC-1 cells = experiment: 3D cell proliferation assay (CellTiter Glo-3D) in AsPC-1 cells; details: ASPC1, 120 h; AsPC-1, human pancreatic cancer cell strain, KRAS G12D mutation; 3D culture, 2% FBS, 5 days; read-out: AsPC-1 AP IC50
# Method in brief: as §2
SMILES,IC50 (p-ERK [1]) [nM],IC50 (p-ERK [2]) [nM],IC50 (NCI-H441 cells) [nM],IC50 (AsPC-1 cells) [nM]
"CO[C@@H](C)c1ncc(C#CCN2CCS(=O)(=O)CC2)cc1-c1c2c(cn1C1CCCC1)/C=C/c1csc(n1)C[C@H](NC(=O)[C@H]1[C@H](C)[C@@H]1C)C(=O)N1CCC[C@H](N1)C(=O)OCC(C)(C)C2 (atropisomer, axis not shown; (Ra)) [Compound Z125, (1r,2R,3S)-N-((4^2Z,8^3S,2E,6S)-1^1-cyclopentyl-(Ra)-1^5-(5-(3-(1,1-dioxidothiomorpholino)prop-1-yn-1-yl)-2-((S)-1-methoxyethyl)pyridin-3-yl)-12,12-dimethyl-7,9-dioxo-8^1,8^2,8^3,8^4,8^5,8^6-hexahydro-1^1H-10-oxa-4(4,2)-thiazola-8(1,3)-pyridazina-1(3,4)-pyrrolycyclotridec-2-en-6-yl)-2,3-dimethylcyclopropane-1-carboxamide]",0.53,0.51,0.36,0.35
"CCn1cc2c(c1-c1cc(C#CCN3CCS(=O)(=O)CC3)cnc1[C@H](C)OC)CC(C)(C)COC(=O)[C@@H]1CCCN(N1)C(=O)[C@@H](NC(=O)[C@H]1[C@@H]3COC[C@@H]31)Cc1nc(cs1)/C=C/2 (atropisomer, axis not shown; (Ra)) [Compound Z130, (1R,5S,6r)-N-((4^2Z,8^3S,2E,6S)-(Ra)-1^5-(5-(3-(1,1-dioxidothiomorpholino)prop-1-yn-1-yl)-2-((S)-1-methoxyethyl)pyridin-3-yl)-1^1-ethyl-12,12-dimethyl-7,9-dioxo-8^1,8^2,8^3,8^4,8^5,8^6-hexahydro-1^1H -10-oxa-4(4,2)-thiazola-8(1,3)-pyridazina-1(3,4)-pyrrolacyclotridecaphan-2-en-6-yl)-3-oxabicyclo[3.1.0]hexane-6-carboxamide]",0.54,0.94,0.41,0.36
"CCn1c(F)c2c(c1-c1cc(C#CCN3CCC(C#N)CC3)cnc1[C@H](C)OC)CC(C)(C)COC(=O)[C@@H]1CCCN(N1)C(=O)[C@@H](NC(=O)[C@H]1[C@H](C)[C@@H]1C)Cc1nc(cs1)/C=C/2 (atropisomer, axis not shown; (Ra)) [Compound Z139, (1r, 2R, 3S)-N-((4^2Z, 8^3S,2E,6S)-(Ra)-1^5-(5-(3-(4-cyanopiperidin-1-yl)prop-1-yn-1-yl)-2-((S)-1-methoxyethyl)pyridin-3-yl)-1^1-ethyl-1^2-fluoro-12,12-dimethyl-7,9-dioxo-8^1,8^1,8^1,8^4,8^5,8^6-hexahydro-1^1H-10-oxa-4(4,2)-thiazola-8(1,3)-pyridazina-1(3,4)-pyrrolacyclotridecaphan-2-en-6-yl)-2,3-dimethylcyclopropane-1-carboxamide]",0.42,0.4,0.12,0.1
"CCn1c(F)c2c(c1-c1cc(C#CCN3CCC(C#N)(CN)CC3)cnc1[C@H](C)OC)CC(C)(C)COC(=O)[C@@H]1CCCN(N1)C(=O)[C@@H](NC(=O)[C@H]1[C@H](C)[C@@H]1C)Cc1nc(cs1)/C=C/2 (atropisomer, axis not shown; (Ra)) [Compound Z145, (1r,2R,3S)-N-((4^2Z, 8^3S, 2E, 6S)-(Ra)-1^5-(5-(3-(4-(aminomethyl)-4-cyanopiperidin-1-yl)prop-1-yn-1-yl)-2-((S)-1-methoxyethy)pyridin-3-yl)-1^1-ethyl-1^2-fluoro-12,12-dimethyl-7,9-dioxo-8^1,8^2,8^3,8^4,8^5,8^6-hexahydro-1^1H-10-oxa-4(4,2)-thiazola-8(1,3)-pyridazina-1(3,4)-pyrrolacyclotridecaphan-2-en-6-yl)-2,3-dimethylcyclopropane-1-carboxamide]",0.29,0.15,0.2,0.15
"CCn1cc2c(c1-c1cc(C#CCN3CCOCC3)cnc1[C@H](C)OC)CC(C)(C)COC(=O)[C@@H]1CCCN(N1)C(=O)[C@@H](NC(=O)[C@H]1[C@H](C)[C@@H]1C)Cc1nc(cs1)/C=C/2 (atropisomer, axis not shown; (Ra)) [Compound Z172, (1r,2R,3S)-N-((4^2Z, 8^1S, 2E, 6S)-1^1-ethyl-(Ra)-1^5-(2-((S)-1-methoxyethyl)-5-(3-morpholinoprop-1-yn-1-yl)pyridin-3-yl)-12,12-dimethyl-7,9-dioxo-8^1,8^2,8^3,8^4,8^5,8^6-hexahydro-1^1H-10-oxa-4(4,2)-thiazola-8(1,3)-pyridazina-1(3,4)-pyrrolacyclotridecaphan-2-en-6-yl)-2,3-dimethylcyclopropane-1-carboxamide]",0.75,0.74,0.41,0.4
"CCn1c(F)c2c(c1-c1cc(C#CCN3CCOCC3)cnc1[C@H](C)OC)CC(C)(C)COC(=O)[C@@H]1CCCN(N1)C(=O)[C@@H](NC(=O)[C@H]1[C@H](C)[C@@H]1C)Cc1nc(cs1)/C=C/2 (atropisomer, axis not shown; (Ra)) [Compound Z229, (1r, 2R, 3S)-N-((4^2Z, 8^3S, 2E,6S)-1^1-ethyl-1^2-fluoro-(Ra)-1^5-(2-((S)-1-methoxyethyl)-5-(3-morpholinoprop-yn-1-yl)pyridin-3-yl)-12,12-dimethyl-7,9-dioxo-8^1,8^2,8^3,8^4,8^5,8^6-hexahydro-1^1H-10-oxa-4(4,2)-thiazola-8(1,3)-pyridazina-1(3,4)-pyrrolacyclotridecaphan-2-en-6-yl)-2,3-dimethylcyclopropane-1-carboxamide]",0.6,1.04,0.56,0.56
"CCn1cc2c(c1-c1cc(N3CCN(C)CC3)cnc1[C@H](C)OC)CC(C)(C)COC(=O)[C@@H]1CCCN(N1)C(=O)[C@@H](NC(=O)[C@H]1[C@H](C)[C@@H]1C)Cc1nc(cs1)/C=C/2 (single isomer, unassigned) [Compound Z8]",4.74,4.98,2.39,2.37
"CO[C@@H](C)c1ncc(C#CCN2CCS(=O)(=O)CC2)cc1-c1c2c(cn1C(C)C)/C=C/c1csc(n1)C[C@H](NC(=O)[C@H]1[C@H](C)[C@@H]1C)C(=O)N1CCC[C@H](N1)C(=O)OCC(C)(C)C2 (single isomer, unassigned) [Compound Z10]",0.83,1.2,0.42,0.56
"CO[C@@H](C)c1ncc(C#CCN2CCS(=O)(=O)CC2)cc1-c1c2c(nn1C(C)C)/C=C/c1csc(n1)C[C@H](NC(=O)[C@H]1[C@H](C)[C@@H]1C)C(=O)N1CCC[C@H](N1)C(=O)OCC(C)(C)C2 (single isomer, unassigned) [Compound Z15]",6.74,20.3,4.31,10.6
